The target of one test is Human plasma kallikrein (Homo sapiens (Human), UniProt P03952). The test is described as follows: Kallikrein Assay. The class given is biochemical. The settings on record: purified Human plasma kallikrein 0.5 nM, Acetyl-K-P-R-AFC, pH 7.4; Ki from IC50 by Cheng Prusoff. The gist of the method:
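Purified human plasma kallikrein (0.5 nM final) with Acetyl-K-P-R-AFC substrate ([…]) in 50 mM HEPES pH 7.4, 150 mM NaCl, 5 mM CaCl2, 0.1% PEG 8000, after enzyme-inhibitor equilibration. Fluorescence (405 ex/510 em) under linear conditions; IC50 from four-parameter fit, converted to Ki by Cheng-Prusoff.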

In the next test the target is human Factor XIa (Homo sapiens (Human), UniProt P03951). In words: Factor XIa Assay. The class given is biochemical. The settings on record: purified human Factor XIa 40 pM, Z-Gly-Pro-Arg-AFC 100 μM, pH 7.4; read-out: FXIa Ki. The gist of the method: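 Purified human FXIa (40 pM final) hydrolysing fluorogenic Z-Gly-Pro-Arg-AFC (100 μM) in 50 mM HEPES pH 7.4, 150 mM NaCl, 5 mM CaCl2, 0.1% PEG 8000, at room temperature or 37° C. Initial velocities measured after enzyme–inhibitor equilibration; Ki from Vo/Vi versus [I], assuming competitive inhibition.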
Chain of human Factor XIa (P03951 388-625): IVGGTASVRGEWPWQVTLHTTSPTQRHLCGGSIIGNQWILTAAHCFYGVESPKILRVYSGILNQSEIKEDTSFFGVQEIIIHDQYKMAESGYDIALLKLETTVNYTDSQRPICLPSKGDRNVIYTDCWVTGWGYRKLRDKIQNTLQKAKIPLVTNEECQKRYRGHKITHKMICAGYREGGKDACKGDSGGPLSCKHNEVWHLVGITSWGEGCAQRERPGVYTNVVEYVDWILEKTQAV
Chain of human Factor XIa (P03951 19-387 partner): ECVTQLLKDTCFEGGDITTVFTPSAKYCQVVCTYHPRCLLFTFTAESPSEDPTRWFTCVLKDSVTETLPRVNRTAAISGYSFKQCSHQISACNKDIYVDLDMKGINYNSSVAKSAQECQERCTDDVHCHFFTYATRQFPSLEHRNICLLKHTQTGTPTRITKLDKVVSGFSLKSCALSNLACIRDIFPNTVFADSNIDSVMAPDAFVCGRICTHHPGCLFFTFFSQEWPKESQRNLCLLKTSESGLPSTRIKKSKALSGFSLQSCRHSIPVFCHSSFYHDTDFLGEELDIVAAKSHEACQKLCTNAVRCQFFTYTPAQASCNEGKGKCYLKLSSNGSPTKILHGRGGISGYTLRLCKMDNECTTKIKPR

Chain of Human plasma kallikrein (P03952 391-638): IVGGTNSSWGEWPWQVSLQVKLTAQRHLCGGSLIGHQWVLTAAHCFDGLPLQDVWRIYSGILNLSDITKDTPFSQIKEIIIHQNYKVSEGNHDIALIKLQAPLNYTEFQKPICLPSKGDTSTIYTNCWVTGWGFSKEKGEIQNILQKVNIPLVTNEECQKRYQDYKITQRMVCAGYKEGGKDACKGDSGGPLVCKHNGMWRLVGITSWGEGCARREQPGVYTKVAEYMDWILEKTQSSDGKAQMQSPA
Chain of Human plasma kallikrein (P03952 20-390 partner): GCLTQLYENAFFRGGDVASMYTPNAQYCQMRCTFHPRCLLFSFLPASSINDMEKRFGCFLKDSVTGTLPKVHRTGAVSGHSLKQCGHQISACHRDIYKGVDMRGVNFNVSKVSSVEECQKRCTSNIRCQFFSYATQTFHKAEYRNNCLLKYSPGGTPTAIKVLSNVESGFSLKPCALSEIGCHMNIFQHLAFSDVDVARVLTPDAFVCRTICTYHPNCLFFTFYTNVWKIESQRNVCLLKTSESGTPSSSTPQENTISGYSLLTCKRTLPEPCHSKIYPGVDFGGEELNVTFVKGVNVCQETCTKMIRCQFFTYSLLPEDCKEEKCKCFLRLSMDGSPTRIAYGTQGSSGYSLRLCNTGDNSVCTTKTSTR

Regarding `COC(=O)Nc1ccc(C(=O)N[C@@H](Cc2ccc(-c3cn[nH]c3)cc2)C(=O)N2CC[C@@]3(C2)OC(=O)Nc2ccc(Cl)cc23)cc1` [Example 78, methyl (4-(((S)-3-(4-(1H-pyrazol-4-yl)phenyl)-1-((R)-6-chloro-2-oxo-1,2-dihydrospiro[benzo[d][1,3]oxazine-4,3′-pyrrolidin]-1′-yl)-1-oxopropan-2-yl)carbamoyl)phenyl)carbamate], the figures for the Ki at Human plasma kallikrein and at human Factor XIa were 24.5 nM and 2.37 nM, respectively.
For the compound `COC(=O)Nc1ccc(C(=O)N[C@@H](Cc2ccc(-c3cc[nH]c3)cc2)C(=O)N2CC[C@@]3(C2)OC(=O)Nc2ccc(Cl)cc23)cc1` [Example 79, methyl (4-(((S)-3-(4-(1H-pyrrol-3-yl)phenyl)-1-((R)-6-chloro-2-oxo-1,2-dihydrospiro[benzo[d][1,3]oxazine-4,3′-pyrrolidin]-1′-yl)-1-oxopropan-2-yl)carbamoyl)phenyl)carbamate], the Ki stood at 14.5 nM at Human plasma kallikrein and 9.98 nM on human Factor XIa.
The matching figures for `COC(=O)Nc1ccc(C(=O)N[C@@H](Cc2ccc(-c3cc(C(F)(F)F)nn3C)cc2)C(=O)N2CC[C@@]3(C2)OC(=O)Nc2ccc(Cl)cc23)cc1` [Example 81, methyl (4-(((S)-1-((R)-6-chloro-2-oxo-1,2-dihydrospiro[benzo[d][1,3]oxazine-4,3′-pyrrolidin]-1′-yl)-3-(4-(1-methyl-3-(trifluoromethyl)-1H-pyrazol-5-yl)phenyl)-1-oxopropan-2-yl)carbamoyl)phenyl)carbamate]: 7.98 nM and 29.9 nM.
Turning to `COC(=O)Nc1ccc(C(=O)N[C@@H](Cc2ccc(-c3conc3C)cc2)C(=O)N2CC[C@@]3(C2)OC(=O)Nc2ccc(Cl)cc23)cc1` [Example 82, methyl (4-(((S)-1-((R)-6-chloro-2-oxo-1,2-dihydrospiro[benzo[d][1,3]oxazine-4,3′-pyrrolidin]-1′-yl)-3-(4-(3-methylisoxazol-4-yl)phenyl)-1-oxopropan-2-yl)carbamoyl)phenyl)carbamate], the Ki on Human plasma kallikrein worked out at 11.7 nM; at human Factor XIa it was 7.12 nM.
For the compound `COC(=O)Nc1ccc(C(=O)N[C@@H](Cc2ccc(-c3cnn(C)c3)cc2)C(=O)N2CC[C@@]3(C2)OC(=O)Nc2ccc(Cl)cc23)cc1` [Example 83, methyl (4-(((S)-1-((R)-6-chloro-2-oxo-1,2-dihydrospiro[benzo[d][1,3]oxazine-4,3′-pyrrolidin]-1′-yl)-3-(4-(1-methyl-1H-pyrazol-4-yl)phenyl)-1-oxopropan-2-yl)carbamoyl)phenyl)carbamate], the Ki on Human plasma kallikrein was found to be 31.1 nM; at human Factor XIa it was 2.65 nM.
For `COC(=O)Nc1ccc(C(=O)N[C@@H](Cc2cc(C3CC3)no2)C(=O)N2CC[C@@]3(C2)OC(=O)Nc2ccc(Cl)cc23)cc1` [Example 84, methyl (4-(((S)-1-((R)-6-chloro-2-oxo-1,2-dihydrospiro[benzo[d][1,3]oxazine-4,3′-pyrrolidin]-1′-yl)-3-(3-cyclopropylisoxazol-5-yl)-1-oxopropan-2-yl)carbamoyl)phenyl)carbamate] the same measures were 28.4 nM and 28.1 nM.
For `COC(=O)Nc1ccc(C(=O)N[C@@H](CC(=O)N2CCCCC2)C(=O)N2CC[C@@]3(C2)OC(=O)Nc2ccc(Cl)cc23)cc1` [Example 87, methyl (4-(((S)-1-((R)-6-chloro-2-oxo-1,2-dihydrospiro[benzo[d][1,3]oxazine-4,3′-pyrrolidin]-1′-yl)-1,4-dioxo-4-(piperidin-1-yl)butan-2-yl)carbamoyl)phenyl)carbamate] the same measures were 11 nM and 3.65 nM.
The matching figures for `COC(=O)Nc1ccc(C(=O)N[C@@H](CC(=O)N2CC3CCCC32)C(=O)N2CCC[C@@]3(C2)OC(=O)Nc2ccc(Cl)cc23)cc1` (stereo partly drawn) [Example 94, methyl (4-(((2S)-4-(6-azabicyclo[3.2.0]heptan-6-yl)-1-((R)-6-chloro-2-oxo-1,2-dihydrospiro[benzo[d][1,3]oxazine-4,3′-piperidin]-1′-yl)-1,4-dioxobutan-2-yl)carbamoyl)phenyl)carbamate]: 1.42 nM and 5.47 nM.
As to `COC(=O)Nc1ccc(C(=O)N[C@@H](CC(=O)N2CC[C@H]2CO)C(=O)N2CCC[C@@]3(C2)OC(=O)Nc2ccc(Cl)cc23)cc1` [Example 95, methyl (4-(((S)-1-((R)-6-chloro-2-oxo-1,2-dihydrospiro[benzo[d][1,3]oxazine-4,3′-piperidin]-1′-yl)-4-((S)-2-(hydroxymethyl)azetidin-1-yl)-1,4-dioxobutan-2-yl)carbamoyl)phenyl)carbamate], the values for the Ki at Human plasma kallikrein and at human Factor XIa were 1.81 nM and 3.59 nM, respectively.
For `COC(=O)Nc1ccc(C(=O)N[C@@H](CC(=O)N2CC(OC)C2)C(=O)N2CCC[C@@]3(C2)OC(=O)Nc2ccc(Cl)cc23)cc1` [Example 97, methyl (4-(((S)-1-((R)-6-chloro-2-oxo-1,2-dihydrospiro[benzo[d][1,3]oxazine-4,3′-piperidin]-1′-yl)-4-(3-methoxyazetidin-1-yl)-1,4-dioxobutan-2-yl)carbamoyl)phenyl)carbamate] the same measures were 15.3 nM and 51.1 nM.
The matching figures for `COC(=O)Nc1ccc(C(=O)N[C@@H](CC(=O)NCc2ccnn2C)C(=O)N2CCC[C@@]3(C2)OC(=O)Nc2ccc(Cl)cc23)cc1` [Example 98, methyl (4-(((S)-1-((R)-6-chloro-2-oxo-1,2-dihydrospiro[benzo[d][1,3]oxazine-4,3′-piperidin]-1′-yl)-4-(((1-methyl-1H-pyrazol-5-yl)methyl)amino)-1,4-dioxobutan-2-yl)carbamoyl)phenyl)carbamate]: 25.4 nM and 38.3 nM.
The matching figures for `COC(=O)Nc1ccc(C(=O)N[C@@H](CC(=O)NCC2CC2)C(=O)N2CCC[C@@]3(C2)OC(=O)Nc2ccc(Cl)cc23)cc1` [Example 99, methyl (4-(((S)-1-((R)-6-chloro-2-oxo-1,2-dihydrospiro[benzo[d][1,3]oxazine-4,3′-piperidin]-1′-yl)-4-((cyclopropylmethyl)amino)-1,4-dioxobutan-2-yl)carbamoyl)phenyl)carbamate]: 17.6 nM and 40.4 nM.
For the compound `COC(=O)Nc1ccc(C(=O)N[C@@H](CC(=O)N2CC(O)(C3CC3)C2)C(=O)N2CCC[C@@]3(C2)OC(=O)Nc2ccc(Cl)cc23)cc1` [Example 100, methyl (4-(((S)-1-((R)-6-chloro-2-oxo-1,2-dihydrospiro[benzo[d][1,3]oxazine-4,3′-piperidin]-1′-yl)-4-(3-cyclopropyl-3-hydroxyazetidin-1-yl)-1,4-dioxobutan-2-yl)carbamoyl)phenyl)carbamate], the figures for the Ki on Human plasma kallikrein and on human Factor XIa were 19.7 nM and 39.9 nM, respectively.
`COC(=O)Nc1ccc(C(=O)N[C@@H](CC(=O)N2CC[C@@H](OC)C2)C(=O)N2CCC[C@@]3(C2)OC(=O)Nc2ccc(Cl)cc23)cc1` [Example 101, methyl (4-(((S)-1-((R)-6-chloro-2-oxo-1,2-dihydrospiro[benzo[d][1,3]oxazine-4,3′-piperidin]-1′-yl)-4-((R)-3-methoxypyrrolidin-1-yl)-1,4-dioxobutan-2-yl)carbamoyl)phenyl)carbamate]: the Ki was 10.3 nM on Human plasma kallikrein and 36.4 nM at human Factor XIa.
For `COC(=O)Nc1ccc(C(=O)N[C@@H](CC(=O)N2CC[C@@H]2C)C(=O)N2CCC[C@@]3(C2)OC(=O)Nc2ccc(Cl)cc23)cc1` [Example 102, methyl (4-(((S)-1-((R)-6-chloro-2-oxo-1,2-dihydrospiro[benzo[d][1,3]oxazine-4,3′-piperidin]-1′-yl)-4-((S)-2-methylazetidin-1-yl)-1,4-dioxobutan-2-yl)carbamoyl)phenyl)carbamate] the same measures were < 1.36 nM and 0.77 nM.
The matching figures for `COC(=O)Nc1ccc(C(=O)N[C@@H](CC(F)F)C(=O)N2CCC[C@@]3(C2)OC(=O)Nc2ccc(Cl)c(F)c23)cc1` [Example 104, methyl (4-(((S)-1-((R)-6-chloro-5-fluoro-2-oxo-1,2-dihydrospiro[benzo[d][1,3]oxazine-4,3′-piperidin]-1′-yl)-4,4-difluoro-1-oxobutan-2-yl)carbamoyl)phenyl)carbamate]: 5.28 nM and 15 nM.
For `COC(=O)Nc1ccc(C(=O)N[C@@H](CCF)C(=O)N2CCC[C@@]3(C2)OC(=O)Nc2ccc(Cl)c(F)c23)cc1` [Example 105, methyl (4-(((S)-1-((R)-6-chloro-5-fluoro-2-oxo-1,2-dihydrospiro[benzo[d][1,3]oxazine-4,3′-piperidin]-1′-yl)-4-fluoro-1-oxobutan-2-yl)carbamoyl)phenyl)carbamate] the same measures were 3.04 nM and 9.99 nM.
Consider `COC(=O)Nc1ccc(C(=O)N[C@@H](CC(C)O)C(=O)N2CCC3(C2)OC(=O)Nc2ccc(Cl)cc23)cc1` (stereo partly drawn) [Example 110, methyl (4-(((2S)-1-((R)-6-chloro-2-oxo-1,2-dihydrospiro[benzo[d][1,3]oxazine-4,3′-pyrrolidin]-1′-yl)-4-hydroxy-1-oxopentan-2-yl)carbamoyl)phenyl)carbamate], for which the figures for the Ki at Human plasma kallikrein and at human Factor XIa were 147 nM and 52 nM, respectively.
For `COC(=O)Nc1ccc(C(=O)N[C@@H](CC(C)(C)O)C(=O)N2CC[C@@]3(C2)OC(=O)Nc2ccc(Cl)cc23)cc1` [Example 111, methyl (4-(((S)-1-((R)-6-chloro-2-oxo-1,2-dihydrospiro[benzo[d][1,3]oxazine-4,3′-pyrrolidin]-1′-yl)-4-hydroxy-4-methyl-1-oxopentan-2-yl)carbamoyl)phenyl)carbamate], the Ki at Human plasma kallikrein is 76 nM; on human Factor XIa, 12 nM.
